For this assay, the system named is sensitive Plutella strain. Description: Control of sensitive Plutella strain. The format is in vivo. The note with it: 80% control, on average, read-out: concentration controlling the sensitive Plutella strain at 80%.

Values after ≈ are worked out from the molar mass of the structure shown.

`CNC(=O)c1cc(Cl)cc(C)c1NC(=O)c1cc(Br)nn1-c1ncccc1Cl` [chlorantraniliprole]: the EC80 is 0.25 µg/mL (≈ 0.517 µM).

(Values after EP4197333A1, “METHOD FOR C[…] RESISTANT PESTS & COMPOUNDS THEREFOR” (Syngenta Crop Protection AG, priority 2021, dated 2023).)
